This is an account of results in ChEMBL document CHEMBL1201862, “PubChem BioAssay data set” (2004).

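How tested: cells in 96-well plates exposed to compound for 48 hours at five concentrations. GI50: concentration for 50% inhibition of growth.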 Calls of active or inactive are those of the source. Cut-off read from the data, not from the text of the source: active = GI50 up to about 1.1 µM and inactive = higher. Where only a bound is given, the exact number is not on record here.

Among the test systems are SK-MEL-5; SNB-75; RPMI-8226; A498; HT-29; HL-60; OVCAR-5; UACC-257; SW-620; UACC-62; NCI/ADR-RES; SK-OV-3; CAKI-1; SK-MEL-28; SN12C; HCT-116; MDA-MB-231; SR; M14; Malme-3M.
Common to all, as to experiment: NCI tumour cell line growth inhibition, 48 h

As for `CNC(=O)C(C)C1CCC2(C)C=CC(=O)C(C)=C2C1O` (configuration not stated), the GI50 with SK-MEL-5 was > 39.6 µM (inactive); in the test with SNB-75, > 100 µM (inactive); with RPMI-8226 it was > 100 µM (inactive); in the test with A498 it was > 100 µM (inactive); in the test with HT-29 it was > 100 µM (inactive); in the test on HL-60, > 100 µM (inactive). Also, the GI50 with OVCAR-5 is > 100 µM (inactive); in the test on UACC-257, > 100 µM (inactive); in the test on SW-620, > 57.4 µM (inactive); with UACC-62, > 100 µM (inactive); in the test with NCI/ADR-RES it was > 47 µM (inactive); with SK-OV-3, > 100 µM (inactive). Further, the GI50 in the test on CAKI-1 is 28.5 µM (inactive); in the test with SK-MEL-28 it was > 100 µM (inactive); in the test on SN12C, > 100 µM (inactive); with HCT-116 it was > 100 µM (inactive).

For `Cc1ncc2c(n1)CCC1=C2OS(=O)(=O)CC1N(C)C` (configuration not stated), the GI50 in the test on SK-MEL-5 is 70 µM (inactive); with MDA-MB-231, > 100 µM (inactive); in the test on SNB-75 it was > 100 µM (inactive); with RPMI-8226 it was > 100 µM (inactive); with A498 it was 58.2 µM (inactive); with HT-29 it was > 100 µM (inactive). The GI50 in the test on HL-60 is > 100 µM (inactive); with OVCAR-5, > 100 µM (inactive); with SR it was > 100 µM (inactive); in the test with UACC-257 it was > 100 µM (inactive); in the test with SW-620 it was > 100 µM (inactive); with M14 it was 95.9 µM (inactive). Moreover, the GI50 in the test on UACC-62 was 96.6 µM (inactive); with SK-OV-3 it was > 100 µM (inactive); with CAKI-1 it was 69.5 µM (inactive); with SK-MEL-28, > 100 µM (inactive); in the test with SN12C, > 100 µM (inactive); in the test with HCT-116 it was 98.2 µM (inactive).

As for `Cc1ccc(/C=C2\Cc3c(C)cc(C)cc3C2=O)c(C(=O)O)c1`, the GI50 was 25.8 µM (inactive) with SK-MEL-5; 58.9 µM (inactive) with SNB-75; 19.3 µM (inactive) in the test with RPMI-8226; 30.1 µM (inactive) in the test on A498; 45.3 µM (inactive) in the test on HT-29; 23.1 µM (inactive) in the test with HL-60. Also, the GI50 with Malme-3M is 72.3 µM (inactive); in the test with OVCAR-5, 33.2 µM (inactive); with SR, 29.4 µM (inactive); in the test with UACC-257, 61.8 µM (inactive); in the test on SW-620, 47.4 µM (inactive); in the test with M14 it was > 100 µM (inactive). The GI50 in the test with UACC-62 was 41.1 µM (inactive); in the test with NCI/ADR-RES, 90.6 µM (inactive); in the test on CAKI-1 it was > 100 µM (inactive); in the test with SK-MEL-28, 56.2 µM (inactive); with SN12C, 67.5 µM (inactive); with HCT-116, 49.4 µM (inactive).

As to `COc1cc(/C=C/C(=O)O)ccc1C(=O)OCc1ccccc1`, the GI50 in the test on SK-MEL-5, in the test on SNB-75, in the test with RPMI-8226, in the test with A498, with HT-29 and in the test on HL-60 was > 100 µM (inactive) each time. The GI50 in the test on Malme-3M, in the test with OVCAR-5, in the test on UACC-257, in the test on SW-620, in the test with UACC-62 and in the test with NCI/ADR-RES was > 100 µM (inactive) throughout. In addition, the GI50 in the test with SK-OV-3, with SK-MEL-28, with SN12C and with HCT-116 was > 100 µM (inactive) each time.

Turning to `O=c1cnnc2sc(=S)[nH]n12`, the GI50 in the test on SK-MEL-5 is 20.1 µM (inactive); in the test with RPMI-8226, 13.7 µM (inactive); in the test with A498 it was > 100 µM (inactive); with HT-29, 39.8 µM (inactive); in the test with HL-60, 16.6 µM (inactive); with Malme-3M it was 31 µM (inactive). In addition, the GI50 in the test with OVCAR-5 is > 100 µM (inactive); with SR, 22.4 µM (inactive); with UACC-257, 15.9 µM (inactive); in the test on SW-620, 12.4 µM (inactive); with M14, 84.1 µM (inactive); in the test with UACC-62, 18.2 µM (inactive). In addition, the GI50 in the test on NCI/ADR-RES is 30.1 µM (inactive); in the test with CAKI-1, 21.9 µM (inactive); in the test with SK-MEL-28, 65.5 µM (inactive); in the test with HCT-116, > 100 µM (inactive).

In the case of `CN(C)CCNC(=O)c1cccc2cc3cc(O)ccc3nc12`, the GI50 with SK-MEL-5 was 1.23 µM (inactive); in the test on SNB-75, 1.93 µM (inactive); with RPMI-8226, 1.36 µM (inactive); with A498, 0.782 µM (active); in the test with HT-29, 1.02 µM (active); with HL-60, 0.355 µM (active). In addition, the GI50 is 1.22 µM (inactive) with Malme-3M; 1.46 µM (inactive) in the test with OVCAR-5; 1.26 µM (inactive) in the test on UACC-257; 0.611 µM (active) in the test on SW-620; 1.33 µM (inactive) in the test on UACC-62; 1.48 µM (inactive) in the test on NCI/ADR-RES. In addition, the GI50 was 1.46 µM (inactive) with SK-OV-3; < 0.0499 µM (active) in the test with CAKI-1; 1.92 µM (inactive) in the test on SK-MEL-28; 1.1 µM (active) in the test on SN12C; 0.558 µM (active) with HCT-116.

Take `COC(=O)[C@]1(C)CCCn2c(=O)n(-c3ccccc3)c(=O)n21`: the GI50 with SK-MEL-5, in the test with MDA-MB-231, in the test on SNB-75, with RPMI-8226, in the test on A498 and in the test with HT-29 was > 100 µM (inactive) throughout. Also, the GI50 with OVCAR-5, with UACC-257, in the test on SW-620, in the test on M14, in the test with UACC-62 and in the test with NCI/ADR-RES was > 100 µM (inactive) each time. Further, the GI50 in the test on SK-OV-3, with CAKI-1, in the test with SK-MEL-28, in the test on SN12C and in the test with HCT-116 was > 100 µM (inactive) in each case.

Regarding `Cc1cc(C)c(S(=O)(=O)N(CCCCCCN)OCCCN)c(C)c1`, the GI50 is 19.2 µM (inactive) with SK-MEL-5; 10.7 µM (inactive) in the test on MDA-MB-231; 10.3 µM (inactive) in the test with SNB-75; 31.6 µM (inactive) in the test with RPMI-8226; 15.1 µM (inactive) in the test on HT-29; 12.3 µM (inactive) with HL-60. The GI50 in the test on Malme-3M is 10.3 µM (inactive); with OVCAR-5, 21.7 µM (inactive); in the test with UACC-257, 15.8 µM (inactive); with SW-620 it was 17.9 µM (inactive); in the test on M14 it was 20.9 µM (inactive); with UACC-62 it was 19.5 µM (inactive). Also, the GI50 in the test on NCI/ADR-RES was 24.3 µM (inactive); in the test on SK-OV-3 it was 18.4 µM (inactive); in the test with SK-MEL-28 it was 18.1 µM (inactive); in the test on SN12C, 19.6 µM (inactive); in the test with HCT-116, 17.5 µM (inactive).

Consider `Nc1cc(O)c2cc(/N=N/c3ccc(/N=N/c4ccc(/N=N/c5ccc6cc(S(=O)(=O)O)cc(S(=O)(=O)O)c6c5)c5ccccc45)c4cc(S(=O)(=O)O)ccc34)c(S(=O)(=O)O)cc2c1`, for which the GI50 in the test on SK-MEL-5 was > 100 µM (inactive); with SNB-75, 49.1 µM (inactive); in the test with RPMI-8226, > 100 µM (inactive); in the test with A498, > 100 µM (inactive); in the test with HT-29, > 90.2 µM (inactive); in the test with HL-60 it was 42.3 µM (inactive). The GI50 in the test with Malme-3M, with OVCAR-5, with UACC-257, in the test with SW-620, in the test with UACC-62 and in the test on NCI/ADR-RES was > 100 µM (inactive) in each case. Further, the GI50 in the test on SK-OV-3, in the test on SK-MEL-28, in the test on SN12C and with HCT-116 was > 100 µM (inactive) each time.

Turning to `CC1CCC2C(C(=O)O[C@H]3C4CCO[C@@H](OC5OC(CO)C(O)C(O)C5O)C4[C@@]4(CO)O[C@@H]34)=CO[C@@H](OC3OC(CO)C(O)C(O)C3O)C12` (some centres not stated), the GI50 in the test with SK-MEL-5, in the test on MDA-MB-231, in the test with SNB-75, in the test on RPMI-8226, with A498 and in the test on HT-29 was > 10 µM (inactive) each time. Also, the GI50 with HL-60, in the test on Malme-3M, with OVCAR-5, in the test with SR, with UACC-257 and with SW-620 was > 10 µM (inactive) throughout. Moreover, the GI50 in the test with M14, in the test with UACC-62, in the test with SK-OV-3, in the test with SK-MEL-28, with SN12C and in the test with HCT-116 was > 10 µM (inactive) throughout.

On to `COc1cc(C2c3cc4c(cc3[C@@H](Oc3ccc(F)cc3)C3COC(=O)[C@H]23)OCO4)cc(OC)c1O` (some centres not stated), for which the GI50 with SK-MEL-5 was 0.527 µM (active); in the test with SNB-75, 0.287 µM (active); in the test with RPMI-8226, 0.461 µM (active); in the test with A498, 0.236 µM (active); in the test on HT-29, 0.284 µM (active); in the test with HL-60 it was 0.341 µM (active). The GI50 with Malme-3M is 0.653 µM (active); with OVCAR-5, > 100 µM (inactive); with UACC-257, 0.59 µM (active); with SW-620 it was 0.481 µM (active); in the test on UACC-62 it was 0.518 µM (active); in the test on NCI/ADR-RES it was 0.22 µM (active). For the same compound, the GI50 in the test on CAKI-1 is 0.456 µM (active); in the test on SK-MEL-28, 3.15 µM (inactive); with SN12C, 3.19 µM (inactive); with HCT-116, 0.347 µM (active).

As to `COc1cc2c(cc1OC)-c1c3c(cc4c1[C@@H](C2)N(C)CC4)OCO3`, the GI50 with SK-MEL-5 was 7.52 µM (inactive); in the test on SNB-75 it was 7.29 µM (inactive); in the test with RPMI-8226, 5.74 µM (inactive); in the test on A498 it was 4.69 µM (inactive); with HT-29 it was 6.4 µM (inactive); in the test with HL-60, 7.26 µM (inactive). Also, the GI50 was 9.14 µM (inactive) in the test with Malme-3M; 9.64 µM (inactive) in the test with OVCAR-5; 11.6 µM (inactive) with UACC-257; 3.92 µM (inactive) in the test on SW-620; 8.38 µM (inactive) in the test with UACC-62; 5.62 µM (inactive) with NCI/ADR-RES. Moreover, the GI50 is 12.1 µM (inactive) in the test on SK-OV-3; 6.01 µM (inactive) in the test on CAKI-1; 12.2 µM (inactive) with SK-MEL-28; 6.14 µM (inactive) in the test with SN12C; 2.87 µM (inactive) with HCT-116.
